Results reported in patent publication US20240092758A1, “IMIDAZOLO INDAZOLE COMPOUNDS AS JAK INHIBITORS” (Theravance Biopharma R&D IP, LLC, priority 2021, published 2024).

Tests used:
TYK2 = TYK2 (Homo sapiens (Human), UniProt P29597); test: Biochemical JAK kinase assay (LanthaScreen), Tyk2; conditions: read-out: Tyk2 pKi (converted)
Summary of the method: (§1)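 LanthaScreen format: phospho-STAT1 (pTyr701) detected with 2 nM Tb antibody after 10 mM EDTA quench. Kinase step used Km-level ATP and 200 nM STAT1 peptide, 1 h at ambient after 1 h pre-incubation. Inhibition fitted to IC50, reported as pKi.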

JAK2 = JAK2 (Homo sapiens (Human), UniProt O60674); test: Biochemical JAK kinase assay (LanthaScreen), JAK2; conditions: for Ki: read-out: JAK2 pKi (converted)
Chain of JAK2 (O60674 whole entry): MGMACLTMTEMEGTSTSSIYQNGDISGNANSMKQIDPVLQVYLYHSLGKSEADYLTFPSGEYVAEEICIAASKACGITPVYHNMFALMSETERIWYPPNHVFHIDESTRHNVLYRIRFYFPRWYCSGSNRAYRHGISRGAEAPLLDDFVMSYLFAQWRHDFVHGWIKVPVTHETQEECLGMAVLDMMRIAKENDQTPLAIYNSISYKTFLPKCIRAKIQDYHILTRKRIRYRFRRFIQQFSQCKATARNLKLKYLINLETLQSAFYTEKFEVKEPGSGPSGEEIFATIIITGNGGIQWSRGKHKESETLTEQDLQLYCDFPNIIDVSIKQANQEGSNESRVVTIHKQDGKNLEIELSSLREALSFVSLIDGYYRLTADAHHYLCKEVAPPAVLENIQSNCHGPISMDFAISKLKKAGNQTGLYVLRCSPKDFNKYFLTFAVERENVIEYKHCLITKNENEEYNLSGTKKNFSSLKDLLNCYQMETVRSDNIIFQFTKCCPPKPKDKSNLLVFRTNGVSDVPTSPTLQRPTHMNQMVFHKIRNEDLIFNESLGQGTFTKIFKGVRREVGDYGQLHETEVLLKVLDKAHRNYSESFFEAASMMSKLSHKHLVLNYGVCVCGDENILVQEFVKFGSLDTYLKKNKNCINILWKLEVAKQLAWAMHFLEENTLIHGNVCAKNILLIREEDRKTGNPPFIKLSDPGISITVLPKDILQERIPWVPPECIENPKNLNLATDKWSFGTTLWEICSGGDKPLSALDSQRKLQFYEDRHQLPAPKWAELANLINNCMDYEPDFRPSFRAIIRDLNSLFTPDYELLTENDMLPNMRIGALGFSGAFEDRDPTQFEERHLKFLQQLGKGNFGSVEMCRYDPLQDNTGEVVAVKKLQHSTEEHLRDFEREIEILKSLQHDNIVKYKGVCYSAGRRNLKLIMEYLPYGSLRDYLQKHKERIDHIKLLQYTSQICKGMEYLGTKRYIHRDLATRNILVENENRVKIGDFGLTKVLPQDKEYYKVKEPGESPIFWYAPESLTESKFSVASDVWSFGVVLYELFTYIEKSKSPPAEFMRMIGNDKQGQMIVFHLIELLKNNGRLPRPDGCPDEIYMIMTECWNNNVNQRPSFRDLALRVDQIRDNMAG
Summary of the method: as §1

[1] = tested on: IL-13 induced STAT6 phosphorylation in BEAS-2B human lung epithelial cells; test: Cellular JAKI potency assay (BEAS-2B); assay type: cell-based; conditions: Homo sapiens, BEAS-2B, BEAS-2B cells, read-out: BEAS2B pIC50 (converted)
Summary of the method: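 AlphaLISA SureFire detection of Tyr641 pSTAT6 in lysates gave IC50s (4-parameter fit, expressed as pIC50). Cells: human BEAS-2B, exposed 1 h at 37 °C to compound dose series at 0.1% DMSO, then 30 min to IL-13 added at 80 ng/mL in HEPES-buffered HBSS with BSA.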

[2] = Pharmacokinetics in plasma and lung in mouse after oral aspiration administration; assay type: in vivo; conditions: male CD1 mice; for Lung Tissue AUC(0-24) / AUC(0-t): 0.2 mg/mL, two 25 μL increments; for Lung Tissue:Plasma AUC ratio: lung AUC to plasma AUC; for AUC(0-t): mouse, inhaled or intranasal, 0.01 mg/mouse, plasma, read-out: Plasma AUC(0-24)
Procedure: Plasma and lung concentrations of test compounds were quantified and pharmacokinetic parameters were calculated in the following manner. Male CD1 mice from Charles River Laboratories were used in the pharmacokinetic studies. Test compounds were individually formulated in 20% propylene glycol in pH 4 citrate buffer at a concentration of 0.2 mg/mL. Test compounds were administered in two, 25 μL increments introduced into the trachea of each mouse by oral aspiration using a calibrated pipette once the animal was anesthetized using isoflurane. Blood samples were collected as terminal collections via cardiac puncture at 0.167, 1, 4, 8, and 24 hr post-dosing. Following […] with CO2, a direct cardiac puncture was performed while avoiding puncturing the lung and blood was immediately transferred into K2EDTA tubes and placed on wet ice. Blood samples were centrifuged (Eppendorf centrifuge, 5804R) for 4 minutes at approximately 12,000 rpm at 4° C. to collect plasma. Intact lungs were also excised from these mice using the same timepoints (0.167, 1, 4, 8, and 24 hr). Lungs were washed with sterile water to remove any blood residue and were patted dry, weighed, and homogenized in 0.1% formic acid in water at a dilution of 1:3 (lung:water, weight/volume). Plasma and lung concentrations of test compounds were determined by LC-MS/MS analysis against analytical standards constructed into a standard curve in the test matrix. The pharmacokinetic parameters of test compounds were determined by non-compartmental analysis. For concentrations below the limit of quantification, zero was used for mean calculations. Mean values were not reported if more than 50% of the samples were below the limit of quantification at a timepoint, or if more than 50% of a calculated pharmacokinetic parameter was not reportable. The area under the concentration-time curve extrapolated to infinity (AUC(0-inf)) was calculated as follows: AUC(0-inf)=AUC(0-t)+Clast/k, where AUC(0-t) is the area under the concentration-time curve from the time of dosing to the last measurable concentration calculated by the linear trapezoidal rule, Clast is the last measurable concentration, and k is the first order rate constant associated with the terminal elimination phase, estimated by linear regression of time versus log concentration. The lung-to-plasma AUC ratio was determined as the ratio of the lung AUC(0-inf) in μg*hr/g to the plasma AUC(0-inf) in μg*hr/mL.

JAK3 = JAK3 (Homo sapiens (Human), UniProt P52333); test: Biochemical JAK kinase assay (LanthaScreen), JAK3; conditions: read-out: JAK3 pKi (converted)
Chain of JAK3 (P52333 whole entry): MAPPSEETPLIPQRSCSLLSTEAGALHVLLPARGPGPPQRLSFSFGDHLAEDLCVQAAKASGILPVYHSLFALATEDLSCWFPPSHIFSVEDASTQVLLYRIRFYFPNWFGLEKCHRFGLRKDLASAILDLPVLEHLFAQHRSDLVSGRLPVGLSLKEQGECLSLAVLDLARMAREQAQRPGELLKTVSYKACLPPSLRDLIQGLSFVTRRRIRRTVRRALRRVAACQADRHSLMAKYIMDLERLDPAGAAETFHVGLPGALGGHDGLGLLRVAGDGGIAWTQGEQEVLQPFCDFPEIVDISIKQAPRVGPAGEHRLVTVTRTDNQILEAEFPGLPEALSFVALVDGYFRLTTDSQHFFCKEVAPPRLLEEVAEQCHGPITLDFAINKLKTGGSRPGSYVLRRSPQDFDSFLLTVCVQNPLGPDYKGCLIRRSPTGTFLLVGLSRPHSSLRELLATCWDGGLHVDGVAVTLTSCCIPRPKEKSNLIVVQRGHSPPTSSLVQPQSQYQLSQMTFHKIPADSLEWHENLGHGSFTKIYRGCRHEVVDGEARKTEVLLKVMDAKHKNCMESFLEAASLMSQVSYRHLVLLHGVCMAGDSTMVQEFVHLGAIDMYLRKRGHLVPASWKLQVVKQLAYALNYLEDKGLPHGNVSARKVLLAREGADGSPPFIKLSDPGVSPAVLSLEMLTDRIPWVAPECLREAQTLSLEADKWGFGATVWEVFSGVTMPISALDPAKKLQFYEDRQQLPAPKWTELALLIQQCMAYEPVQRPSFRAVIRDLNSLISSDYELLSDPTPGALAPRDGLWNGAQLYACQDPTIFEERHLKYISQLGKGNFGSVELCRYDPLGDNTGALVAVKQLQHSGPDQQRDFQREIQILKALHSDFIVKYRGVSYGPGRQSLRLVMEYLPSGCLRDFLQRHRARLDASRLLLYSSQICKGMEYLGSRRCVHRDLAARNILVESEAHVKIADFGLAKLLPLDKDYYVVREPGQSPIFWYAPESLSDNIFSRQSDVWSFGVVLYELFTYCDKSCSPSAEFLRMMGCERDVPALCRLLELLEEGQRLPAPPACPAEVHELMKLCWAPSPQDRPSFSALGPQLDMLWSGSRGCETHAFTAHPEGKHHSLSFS
Summary of the method: as §1

JAK1 = JAK1 (Homo sapiens (Human), UniProt P23458); test: Biochemical JAK kinase assay (LanthaScreen), JAK1; conditions: for Ki: read-out: JAK1 pKi (converted)
Chain of JAK1 (P23458 whole entry): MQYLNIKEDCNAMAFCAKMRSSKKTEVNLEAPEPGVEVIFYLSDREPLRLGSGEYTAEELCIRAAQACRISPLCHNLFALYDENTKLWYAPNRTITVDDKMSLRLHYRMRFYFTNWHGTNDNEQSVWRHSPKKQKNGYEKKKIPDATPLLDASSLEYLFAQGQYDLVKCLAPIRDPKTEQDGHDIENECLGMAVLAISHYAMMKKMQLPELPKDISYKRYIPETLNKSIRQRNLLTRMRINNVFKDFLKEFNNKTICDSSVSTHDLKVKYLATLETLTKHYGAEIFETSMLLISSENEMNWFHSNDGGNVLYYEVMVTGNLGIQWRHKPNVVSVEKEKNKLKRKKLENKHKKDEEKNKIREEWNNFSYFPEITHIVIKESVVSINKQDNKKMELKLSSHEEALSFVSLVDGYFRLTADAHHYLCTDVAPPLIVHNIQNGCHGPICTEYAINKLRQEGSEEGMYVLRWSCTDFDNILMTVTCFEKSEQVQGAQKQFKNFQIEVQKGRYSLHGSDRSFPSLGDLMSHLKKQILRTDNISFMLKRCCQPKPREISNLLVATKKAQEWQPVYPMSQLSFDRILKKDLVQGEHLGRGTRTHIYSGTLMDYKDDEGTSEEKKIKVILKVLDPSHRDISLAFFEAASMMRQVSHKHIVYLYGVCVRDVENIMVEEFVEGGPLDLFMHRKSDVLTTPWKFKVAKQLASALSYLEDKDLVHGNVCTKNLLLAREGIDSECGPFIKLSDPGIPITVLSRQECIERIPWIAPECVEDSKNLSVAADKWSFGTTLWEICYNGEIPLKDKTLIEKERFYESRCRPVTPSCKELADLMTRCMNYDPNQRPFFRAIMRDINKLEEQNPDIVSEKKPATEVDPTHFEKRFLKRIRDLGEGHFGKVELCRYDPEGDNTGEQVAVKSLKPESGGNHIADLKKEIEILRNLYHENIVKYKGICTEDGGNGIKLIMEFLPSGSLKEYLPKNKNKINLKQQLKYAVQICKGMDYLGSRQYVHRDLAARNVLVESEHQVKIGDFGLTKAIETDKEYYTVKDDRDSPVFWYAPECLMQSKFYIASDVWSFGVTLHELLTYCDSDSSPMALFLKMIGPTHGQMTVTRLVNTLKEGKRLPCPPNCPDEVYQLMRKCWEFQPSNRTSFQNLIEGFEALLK
Summary of the method: as §1

Chain of TYK2 (P29597 whole entry): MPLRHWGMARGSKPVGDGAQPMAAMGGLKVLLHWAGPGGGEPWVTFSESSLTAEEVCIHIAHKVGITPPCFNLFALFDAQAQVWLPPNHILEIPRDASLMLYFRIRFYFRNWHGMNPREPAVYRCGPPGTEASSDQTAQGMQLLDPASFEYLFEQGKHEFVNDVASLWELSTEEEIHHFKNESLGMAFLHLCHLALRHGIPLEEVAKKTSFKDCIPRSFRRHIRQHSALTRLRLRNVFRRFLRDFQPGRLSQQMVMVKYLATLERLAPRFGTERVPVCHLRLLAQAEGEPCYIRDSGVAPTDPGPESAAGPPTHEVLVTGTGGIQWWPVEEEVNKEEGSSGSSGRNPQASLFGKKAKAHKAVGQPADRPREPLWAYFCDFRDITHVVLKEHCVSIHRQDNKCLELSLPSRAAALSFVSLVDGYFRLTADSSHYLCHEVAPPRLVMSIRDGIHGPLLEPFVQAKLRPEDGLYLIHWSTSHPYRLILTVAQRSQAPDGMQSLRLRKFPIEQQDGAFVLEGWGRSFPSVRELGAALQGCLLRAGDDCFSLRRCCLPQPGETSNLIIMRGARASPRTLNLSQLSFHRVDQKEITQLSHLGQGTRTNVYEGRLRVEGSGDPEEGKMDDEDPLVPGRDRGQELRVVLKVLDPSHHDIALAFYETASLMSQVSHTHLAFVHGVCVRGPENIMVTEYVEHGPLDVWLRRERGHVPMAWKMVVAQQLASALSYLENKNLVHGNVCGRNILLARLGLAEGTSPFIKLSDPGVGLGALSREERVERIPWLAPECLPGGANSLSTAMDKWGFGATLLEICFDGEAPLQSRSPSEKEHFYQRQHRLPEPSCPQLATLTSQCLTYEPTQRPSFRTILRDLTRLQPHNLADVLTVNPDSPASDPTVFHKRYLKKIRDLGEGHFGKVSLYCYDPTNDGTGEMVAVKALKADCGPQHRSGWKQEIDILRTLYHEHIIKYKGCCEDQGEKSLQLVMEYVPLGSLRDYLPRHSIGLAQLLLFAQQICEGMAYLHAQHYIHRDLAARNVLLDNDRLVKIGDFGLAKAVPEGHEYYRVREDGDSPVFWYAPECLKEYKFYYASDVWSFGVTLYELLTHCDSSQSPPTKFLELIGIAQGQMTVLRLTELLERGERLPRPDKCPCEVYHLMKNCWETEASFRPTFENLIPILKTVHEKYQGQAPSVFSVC

Row | SMILES | Ki (TYK2) | Ki (JAK2) | IC50 [1] | Lung Tissue AUC(0-24) [2] | Lung Tissue:Plasma AUC ratio [2] | AUC(0-t) [2] | Ki (JAK3) | Ki (JAK1) | JAK2 pKi (JAK2) | JAK1 pKi (JAK1)
1 | CCc1cc(O)ccc1-c1ccc2c(-c3nc(C4=CCCN(CCO)C4)c[nH]3)n[nH]c2c1F [Example 44] | 1 to 10 nM | 0.1 to 1 nM | 3.16 to 10 nM | B (B denotes a value between 50 and 100) | D (D denotes a ratio between 50 and 100) | 500 to 1000 ng·h/mL | 0.1 to 1 nM | 0.1 to 1 nM | – | –
2 | CCc1cc(O)ccc1-c1ccc2c(-c3nc(C4=CCCN(CCCO)C4)c[nH]3)n[nH]c2c1F [Example 45] | 1 to 10 nM | – | 3.16 to 10 nM | C (C denotes a value between 9 and 50) | C (C denotes a ratio between 100 and 200) | < 500 ng·h/mL | 0.1 to 1 nM | 0.1 to 1 nM | A (A represents a pKi value ≥10 (Ki≤0.1 nM)) | –
3 | CCc1cc(O)ccc1-c1ccc2c(-c3nc(C4=CCN(C(=O)[C@@H](N)C(C)(C)O)C4)c[nH]3)n[nH]c2c1 [Example 170] | 0.1 to 1 nM | – | 10 to 31.6 nM | B (B denotes a value between 50 and 100) | C (C denotes a ratio between 100 and 200) | < 500 ng·h/mL | 0.1 to 1 nM | 0.1 to 1 nM | A (A represents a pKi value ≥10 (Ki≤0.1 nM)) | –
4 | CCc1cc(O)ccc1-c1ccc2c(-c3nc(C4=CCN(C5CCN(C)CC5)CC4)c[nH]3)n[nH]c2c1F [Example 185] | 1 to 10 nM | 0.1 to 1 nM | 10 to 31.6 nM | A (For the Lung Tissue AUC(0-24), A denotes a value between 100 and 200) | B (B denotes a ratio between 200 and 300) | 500 to 1000 ng·h/mL | 0.1 to 1 nM | 0.1 to 1 nM | – | –
5 | CCc1cc(O)ccc1-c1ccc2c(-c3nc(C4=CCCN(C5CCN(C)CC5)C4)c[nH]3)n[nH]c2c1 [Example 192] | 1 to 10 nM | – | 10 to 31.6 nM | A (For the Lung Tissue AUC(0-24), A denotes a value between 100 and 200) | A (For the ratio of lung exposure to plasma exposure, A denotes a ratio 300-410) | < 500 ng·h/mL | 0.1 to 1 nM | 0.1 to 1 nM | A (A represents a pKi value ≥10 (Ki≤0.1 nM)) | –
6 | CCc1cc(O)ccc1-c1ccc2c(-c3nc(C4=CCN(C5CCN(C)CC5)C4)c[nH]3)n[nH]c2c1F [Example 201] | 1 to 10 nM | – | 3.16 to 10 nM | A (For the Lung Tissue AUC(0-24), A denotes a value between 100 and 200) | B (B denotes a ratio between 200 and 300) | 500 to 1000 ng·h/mL | 0.1 to 1 nM | 0.1 to 1 nM | A (A represents a pKi value ≥10 (Ki≤0.1 nM)) | –
7 | CCc1cc(O)ccc1-c1ccc2c(-c3nc(C4=CCN(C5CN(C)C5)C4)c[nH]3)n[nH]c2c1F [Example 202] | 1 to 10 nM | – | 10 to 31.6 nM | B (B denotes a value between 50 and 100) | D (D denotes a ratio between 50 and 100) | 500 to 1000 ng·h/mL | 0.1 to 1 nM | 0.1 to 1 nM | A (A represents a pKi value ≥10 (Ki≤0.1 nM)) | –
8 | CCc1cc(O)ccc1-c1ccc2c(-c3nc(C4=C(C)CNCC4)c[nH]3)n[nH]c2c1F [Example 227] | 1 to 10 nM | 0.1 to 1 nM | 10 to 31.6 nM | A (For the Lung Tissue AUC(0-24), A denotes a value between 100 and 200) | C (C denotes a ratio between 100 and 200) | 500 to 1000 ng·h/mL | 1 to 10 nM | 0.1 to 1 nM | – | –
9 | CCc1cc(O)ccc1-c1ccc2c(-c3nc(C4=CC[C@H](C)NC4)c[nH]3)n[nH]c2c1F [Example 234] | 1 to 10 nM | 0.1 to 1 nM | 3.16 to 10 nM | B (B denotes a value between 50 and 100) | C (C denotes a ratio between 100 and 200) | < 500 ng·h/mL | 1 to 10 nM | – | – | A (A represents a pKi value ≥10 (Ki≤0.1 nM))
10 | CCc1cc(O)ccc1-c1ccc2c(-c3nc(C4=CC[C@@H](C)NC4)c[nH]3)n[nH]c2c1F [Example 235] | 1 to 10 nM | – | 10 to 31.6 nM | C (C denotes a value between 9 and 50) | C (C denotes a ratio between 100 and 200) | < 500 ng·h/mL | 0.1 to 1 nM | 0.1 to 1 nM | A (A represents a pKi value ≥10 (Ki≤0.1 nM)) | –
11 | CCc1cc(O)ccc1-c1ccc2c(-c3nc(C4=C[C@@H](COC)NC4)c[nH]3)n[nH]c2c1F [Example 246] | 10 to 100 nM | 0.1 to 1 nM | 10 to 31.6 nM | C (C denotes a value between 9 and 50) | D (D denotes a ratio between 50 and 100) | < 500 ng·h/mL | 1 to 10 nM | 0.1 to 1 nM | – | –
